Tests used:
hERG (Kv11.1) [1] = molecular target: T1, hERG (Kv11.1) (Homo sapiens, UniProt Q12809); experiment: whole-cell patch clamp of I Kr tail current in hiPSC-CMs; format: cell-based
T1 construct: gene KCNH2

hERG (Kv11.1) [2] = molecular target: T1, hERG (Kv11.1); experiment: whole-cell patch clamp: hERG-HEK293 cells ([…]) and I Kr in hiPSC-CMs (IC50); format: cell-based

T1 sequence (Q12809 whole entry): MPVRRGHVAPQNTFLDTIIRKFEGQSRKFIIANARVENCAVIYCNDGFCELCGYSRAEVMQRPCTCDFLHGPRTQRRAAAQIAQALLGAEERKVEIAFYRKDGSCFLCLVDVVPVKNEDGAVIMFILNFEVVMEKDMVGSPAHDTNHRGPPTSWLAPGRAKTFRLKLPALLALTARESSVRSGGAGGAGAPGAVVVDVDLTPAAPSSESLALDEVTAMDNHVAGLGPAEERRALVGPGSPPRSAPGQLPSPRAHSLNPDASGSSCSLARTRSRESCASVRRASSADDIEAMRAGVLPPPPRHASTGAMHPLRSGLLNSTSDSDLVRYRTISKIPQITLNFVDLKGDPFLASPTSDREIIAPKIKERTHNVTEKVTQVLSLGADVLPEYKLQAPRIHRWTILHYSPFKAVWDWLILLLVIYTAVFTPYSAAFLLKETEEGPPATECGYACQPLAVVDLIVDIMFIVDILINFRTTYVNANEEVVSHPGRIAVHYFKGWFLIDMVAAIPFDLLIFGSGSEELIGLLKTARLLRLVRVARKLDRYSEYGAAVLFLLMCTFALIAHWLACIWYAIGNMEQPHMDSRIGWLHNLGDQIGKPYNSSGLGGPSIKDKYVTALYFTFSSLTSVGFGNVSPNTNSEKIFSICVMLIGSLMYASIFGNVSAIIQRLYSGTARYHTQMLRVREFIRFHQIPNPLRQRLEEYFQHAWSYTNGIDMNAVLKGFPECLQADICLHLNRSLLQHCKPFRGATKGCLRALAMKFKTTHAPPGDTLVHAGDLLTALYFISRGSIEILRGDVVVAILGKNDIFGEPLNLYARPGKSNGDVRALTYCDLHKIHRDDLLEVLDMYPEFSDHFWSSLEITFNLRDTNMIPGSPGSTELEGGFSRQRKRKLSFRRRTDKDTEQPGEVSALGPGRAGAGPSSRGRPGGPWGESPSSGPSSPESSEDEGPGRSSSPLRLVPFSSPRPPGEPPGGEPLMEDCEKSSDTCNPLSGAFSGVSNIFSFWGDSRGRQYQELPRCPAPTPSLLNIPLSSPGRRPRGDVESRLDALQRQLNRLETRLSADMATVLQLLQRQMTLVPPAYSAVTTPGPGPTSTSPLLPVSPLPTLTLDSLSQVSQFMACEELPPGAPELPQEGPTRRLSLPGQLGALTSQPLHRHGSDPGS

Structure (SMILES)	IC50 (hERG (Kv11.1) [1])	IC50 (hERG (Kv11.1) [2])
CC[C@H]1CN2CCc3c([nH]c4cccc(OC)c34)[C@@H]2C[C@@H]1/C(=C\OC)C(=O)OC [Speciogynine]	1020 nM	–
C=C[C@H]1CN2CCc3c([nH]c4cccc(OC)c34)[C@@H]2C[C@@H]1/C(=C\OC)C(=O)OC [Paynantheine]	2470 nM	–
CC[C@@H]1CN2CCc3c([nH]c4cccc(OC)c34)[C@@H]2C[C@@H]1/C(=C\OC)C(=O)OC [Mitragynine]	–	910 nM
CC[C@@H]1CN2CCc3c([nH]c4cccc(OC)c34)[C@H]2C[C@@H]1/C(=C\OC)C(=O)OC [Speciociliatine]	1480 nM	–

— PMC4275233, “Evaluation of the Cardiotoxicity of Mitragynine and Its Analogues Using Human Induced Pluripotent Stem Cell-Derived Cardiomyocytes” (PLoS ONE, 2014)
